Measured values: PMC9362525 (Diabetologia, 2022)
Where two headings read alike, the source gives them in different places.

Experiments:
[1] = system: human β-cells; format: cell-based
[2] = system: perifused human islets; format: cell-based
[3] = system: adults with type 2 diabetes; format: in vivo, human
[4] = system: EndocBH5; format: cell-based, human; settings: 96 well plates
[5] = system: patients with T2DM; format: in vivo, human
[6] = format: in vivo, mice; settings: 40 mg/kg
[7] = system: LADA individuals; settings: for GAD65 stimulation index of PBMC proliferation: LADA, median (Q1, Q3)
[8] = system: LADA individuals; settings: corresponding findings in type 1 diabetes (n=56), ref not given, cited from earlier work
[9] = system: cultured subcutaneous adipocytes; format: cell-based; settings: preliminary data
[10] = system: cultured human podocytes; format: cell-based
[11] = system: participants with type 2 diabetes; format: in vivo, human; settings: 32 weeks
[12] = system: HFD-fed C57BL/6J mice; format: in vivo, mouse; settings: 8 weeks
[13] = system: patients with T2D and established CVD; format: in vivo, human; settings: all baseline groups
[14] = design: species or system human; settings: in vivo
[15] = FAERS 2013 Q1-2020 Q4
[16] = system: patients with type 2 diabetes; format: in vivo, human; settings: Ipr 50 mg or Met 1000 mg, 24 weeks, n=15 per group
[17] = system: participants with NAFLD; format: in vivo, human
[18] = system: HHTg-OVX rats; format: in vivo, rat; settings: 12.5 μg/kg b.wt./day s.c., 12 weeks
[19] = system: db/db mice retinas; format: in vivo, mouse
[20] = system: people with type 2 diabetes; format: in vivo, human; settings: 16 weeks; pioglitazone 30mg, sitagliptin 100mg, canagliflozin 100mg
[21] = system: HCAECs; format: cell-based, human
[22] = system: human islets; format: cell-based
[23] = system: db/db mice; format: in vivo, mouse
[24] = system: isolated mouse skeletal muscle (EDL and soleus); format: cell-based; settings: [14C]-glucose, n=7-8
[25] = system: mice; format: in vivo, mouse; settings: acute administration, n=7-8
[26] = system: thromboxane receptor, primary human myotubes; format: cell-based
[27] = system: βV59M diabetic mouse islets; format: cell-based; settings: diabetic islets + 10μM, 48 hours; n=7-8
[28] = system: patients with T2D and metabolic syndrome; design: species or system human; settings: in vivo

NC(=O)N1c2ccccc2C=Cc2ccccc21 [carbamazepine]
cytokine- and ER stress-induced β-cell death [1]: protected
glucose-stimulated insulin secretion [2]: moderately reduced

CC[C@H](C)[C@H](NC(=O)[C@H](CC(C)C)NC(=O)[C@H](Cc1c[nH]c2ccccc12)NC(=O)[C@H](CCC(N)=O)NC(=O)[C@@H](NC(=O)[C@H](Cc1ccccc1)NC(=O)[C@H](C)NC(=O)[C@H](CCCCNC(=O)COCCOCCNC(=O)COCCOCCNC(=O)CC[C@H](NC(=O)CCCCCCCCCCCCCCCCCCC(=O)O)C(=O)O)NC(=O)[C@H](CCC(N)=O)NC(=O)[C@H](C)NC(=O)[C@@H](NC(=O)[C@H](CCCCN)NC(=O)[C@H](CC(=O)O)NC(=O)[C@H](CC(C)C)NC(=O)C(C)(C)NC(=O)[C@@H](NC(=O)[C@H](CO)NC(=O)[C@H](Cc1ccc(O)cc1)NC(=O)[C@H](CC(=O)O)NC(=O)[C@H](CO)NC(=O)[C@@H](NC(=O)[C@H](Cc1ccccc1)NC(=O)[C@@H](NC(=O)CNC(=O)[C@H](CCC(=O)O)NC(=O)C(C)(C)NC(=O)[C@@H](N)Cc1ccc(O)cc1)[C@@H](C)O)[C@@H](C)O)[C@@H](C)CC)[C@@H](C)CC)C(C)C)C(=O)N[C@@H](C)C(=O)NCC(=O)NCC(=O)N1CCC[C@H]1C(=O)N[C@@H](CO)C(=O)N[C@@H](CO)C(=O)NCC(=O)N[C@@H](C)C(=O)N1CCC[C@H]1C(=O)N1CCC[C@H]1C(=O)N1CCC[C@H]1C(=O)N[C@@H](CO)C(N)=O [tirzepatide]
MD in triglycerides vs GLP-1 receptor agonists ([3]; 5 mg once weekly, random effects): -12.51 mg/dL
MD in triglycerides vs GLP-1 receptor agonists ([3]; 15 mg once weekly): -24.98 mg/dL
increased insulin secretion over high glucose [4]: > 3 fold

Cc1ccc(S(=O)(=O)NC(=O)NN2CC3CCCC3C2)cc1 (stereo not drawn) [gliclazide]
incidence of severe hypoglycaemia ([5]; female): 0.75 %/year
incidence of severe hypoglycaemia ([5]; male): 0.41 %/year
insulin secretion after the OGTT [6]: increased

rhGAD65
GAD65 stimulation index of PBMC proliferation ([7]; 2 months from baseline, 3 injections of 4 μg): 2.16 (1.25, 3.06)
GAD65 stimulation index of PBMC proliferation ([7]; 5 months from baseline): 2.34 (1.81, 3.58)
postprandial 2 hour C-peptide ([7]; in vivo): 1.45 (1.25, 1.85) nmol/L
serious adverse events ([7]; interim analysis at 5 months): no treatment-related serious adverse events
GAD65 stimulation index of PBMC proliferation ([8]; 2 months): 2.77 (1.96, 6.05)
GAD65 stimulation index of PBMC proliferation ([8]; 5 months): 3.19 (2.02, 6.19)

Fas ligand [FasL]
isoproterenol-induced UCP1 protein levels [9]: decreased

TGF-β
suppression of Tcf21 expression [10]: 58%

OC[C@H]1O[C@@H](c2ccc(Cl)c(Cc3ccc(O[C@H]4CCOC4)cc3)c2)[C@H](O)[C@@H](O)[C@@H]1O [EMPA, Empagliflozin]
change in GFR from baseline and compared to placebo [11]: -18 mL/min
final body weight ([12]; 10 mg/kg/day oral gavage, HFD): 44.87 ± 1.42 g
FFA ([12]; 10 mg/kg/day): 746.30 ± 56.59 µmol/L
UACR ([12]; 10 mg/kg/day): 21.01 ± 1.99 µg/µmol
fat mass ([12]; 10 mg/kg/day): 11.75 ± 0.78 g
fat/weight ([12]; 10 mg/kg/day): 26.08 ± 1.09%
triglyceride ([12]; 10 mg/kg/day): 29.31 ± 2.71 mg/dL
OR (95% CI) for improved risk vs placebo [13]: 1.56 (1.30, 1.86)
OR (95% CI) for worsening risk vs placebo [13]: 0.70 (0.62, 0.78)

insulin glargine 300 U/mL [Gla-300]
Rates of hypoglycaemia at <3.9 to ≥3.0 mmol/L and <3.0 mmol/L [14]: did not differ between groups

CC[C@H](C)[C@H](NC(=O)[C@H](Cc1ccccc1)NC(=O)[C@H](CCC(=O)O)NC(=O)[C@H](CCCCNC(=O)COCCOCCNC(=O)COCCOCCNC(=O)CC[C@H](NC(=O)CCCCCCCCCCCCCCCCC(=O)O)C(=O)O)NC(=O)[C@H](C)NC(=O)[C@H](C)NC(=O)[C@H](CCC(N)=O)NC(=O)CNC(=O)[C@H](CCC(=O)O)NC(=O)[C@H](CC(C)C)NC(=O)[C@H](Cc1ccc(O)cc1)NC(=O)[C@H](CO)NC(=O)[C@H](CO)NC(=O)[C@@H](NC(=O)[C@H](CC(=O)O)NC(=O)[C@H](CO)NC(=O)[C@@H](NC(=O)[C@H](Cc1ccccc1)NC(=O)[C@@H](NC(=O)CNC(=O)[C@H](CCC(=O)O)NC(=O)C(C)(C)NC(=O)[C@@H](N)Cc1cnc[nH]1)[C@@H](C)O)[C@@H](C)O)C(C)C)C(=O)N[C@@H](C)C(=O)N[C@@H](Cc1c[nH]c2ccccc12)C(=O)N[C@@H](CC(C)C)C(=O)N[C@H](C(=O)N[C@@H](CCCNC(=N)N)C(=O)NCC(=O)N[C@@H](CCCNC(=N)N)C(=O)NCC(=O)O)C(C)C [semaglutide]
PRR for gallbladder or biliary diseases [15]: 6.267

OC[C@H]1O[C@@H](c2ccc(F)c(Cc3cc4ccccc4s3)c2)[C@H](O)[C@@H](O)[C@@H]1O [Ipr, ipragliflozin]
change in visceral fat area [16]: -17.8%

CC(C)c1nc(N(C)S(C)(=O)=O)nc(-c2ccc(F)cc2)c1/C=C/[C@@H](O)C[C@@H](O)CC(=O)O [monotherapy, rosuvastatin]
MRI-PDFF at study completion ([17]; baseline 18.1 (combination), 15.0 (monotherapy)): 12.4%
CAP by transient elastography at completion ([17]; baseline 321 (combination), 323 (monotherapy)): 311 dB/m

C[C@]12CC[C@@H]3c4ccc(O)cc4CC[C@H]3[C@@H]1CC[C@@H]2O [Estradiol, 17-β estradiol]
change in ectopic TAG deposition, kidneys [18]: -23%
change in ectopic TAG deposition, liver [18]: -16%

N[C@@H](CC(=O)N1CCn2c(nnc2C(F)(F)F)C1)Cc1cc(F)c(F)cc1F [sitagliptin]
diabetes-induced down-regulation of presynaptic proteins ([19]; eye drops 5 μL/eye, 10 mg/mL, twice per day, 2 weeks): inhibits this diabetes-induced down-regulation
blood glucose levels ([19]; topical): without any effect
achieved HbA1c [20]: 59.9 mmol/mol

COc1ccc(C(=O)O[C@H]2CC[C@@]3(C)[C@@H]4CC[C@H]5[C@]6(O)C[C@H](O)[C@@]7(O)[C@@H](CN8C[C@@H](C)CC[C@H]8[C@@]7(C)O)[C@]6(O)C[C@@]53O[C@]24O)cc1OC [veratridine]
cytokine- and ER stress-induced β-cell death [1]: increased cell death
glucose-stimulated insulin secretion [2]: increased insulin secretion

CCL5
endothelial function [21]: displayed endothelial dysfunction

CN(C)C(=N)N=C(N)N [Met, Metformin]
caspase 3/7 activity ([22]; cytokines 48 h plus 2.4 μg/ml): 1.2±0.1
insulin stimulation index ([22]; cytokines (IL-1β 50 U/ml + IFN-γ 1000 U/ml) 48 h plus 2.4 μg/ml, mean±SEM): 4.7±1.6
change in visceral fat area [16]: -4.7%

C[C@H]1N=C(N(C)C)N=C(N)N1 [Imeglimin]
random blood glucose levels vs vehicle ([23]; 150 mg/kg B.I.D. oral, age 6-10 weeks): significantly lower
loss of RI intensity in the pancreas (SPECT/CT) ([23]; at 10 weeks): significantly attenuated

I-BOP
increase in ex-vivo skeletal muscle glucose oxidation [24]: +118%
change in glucose tolerance AUC [25]: -34%
increase in glucose incorporation into glycogen ([26]; n=4): +398%
increase in glucose oxidation ([26]; n=5): +28%
increase in glucose uptake ([26]; n=5): +53%

PF-4708671 [S6Ki]
glucose-stimulated increase in OCR above baseline [27]: 203.94±39.24%
oligomycin-induced decrease in OCR [27]: 240.32±9.71%

CC(C)OC(=O)C(C)(C)Oc1ccc(C(=O)c2ccc(Cl)cc2)cc1 [fenofibrate]
HR for primary outcome, patients with retinopathy at baseline [28]: 0.86
